Measured values taken from ChEMBL document CHEMBL1201862, “PubChem BioAssay data set” (2004).
The source made the active and inactive calls.

Experiments:
[1] = molecular target: T1, Ubiquitin-conjugating enzyme E2 N (Homo sapiens, UniProt P61088); type: functional;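 also: Dose-response confirmation in a TR-FRET assay detecting UBC13-driven polyubiquitin chain formation, inhibition measured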
T1 sequence (P61088 whole entry): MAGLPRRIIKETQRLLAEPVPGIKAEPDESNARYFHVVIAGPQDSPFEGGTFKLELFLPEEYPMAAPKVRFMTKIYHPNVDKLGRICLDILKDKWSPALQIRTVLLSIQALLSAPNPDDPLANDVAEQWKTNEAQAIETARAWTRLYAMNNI

cells [2] = type: functional, cell-based
cells [3] = type: functional, cell-based; remark: listed apart in the source
Fatty acid synthase = Fatty acid synthase (Homo sapiens, UniProt P49327); assay: inhibition of human FAS-TE enzyme activity – biochemical, kinetic fluorescence intensity, dose response (AID 624326); type: functional;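 also: rate of fluorescence rise from hydrolysis of a fluorogenic O-methyl fluorescein ester substrate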
Sequence of Fatty acid synthase (P49327 whole entry): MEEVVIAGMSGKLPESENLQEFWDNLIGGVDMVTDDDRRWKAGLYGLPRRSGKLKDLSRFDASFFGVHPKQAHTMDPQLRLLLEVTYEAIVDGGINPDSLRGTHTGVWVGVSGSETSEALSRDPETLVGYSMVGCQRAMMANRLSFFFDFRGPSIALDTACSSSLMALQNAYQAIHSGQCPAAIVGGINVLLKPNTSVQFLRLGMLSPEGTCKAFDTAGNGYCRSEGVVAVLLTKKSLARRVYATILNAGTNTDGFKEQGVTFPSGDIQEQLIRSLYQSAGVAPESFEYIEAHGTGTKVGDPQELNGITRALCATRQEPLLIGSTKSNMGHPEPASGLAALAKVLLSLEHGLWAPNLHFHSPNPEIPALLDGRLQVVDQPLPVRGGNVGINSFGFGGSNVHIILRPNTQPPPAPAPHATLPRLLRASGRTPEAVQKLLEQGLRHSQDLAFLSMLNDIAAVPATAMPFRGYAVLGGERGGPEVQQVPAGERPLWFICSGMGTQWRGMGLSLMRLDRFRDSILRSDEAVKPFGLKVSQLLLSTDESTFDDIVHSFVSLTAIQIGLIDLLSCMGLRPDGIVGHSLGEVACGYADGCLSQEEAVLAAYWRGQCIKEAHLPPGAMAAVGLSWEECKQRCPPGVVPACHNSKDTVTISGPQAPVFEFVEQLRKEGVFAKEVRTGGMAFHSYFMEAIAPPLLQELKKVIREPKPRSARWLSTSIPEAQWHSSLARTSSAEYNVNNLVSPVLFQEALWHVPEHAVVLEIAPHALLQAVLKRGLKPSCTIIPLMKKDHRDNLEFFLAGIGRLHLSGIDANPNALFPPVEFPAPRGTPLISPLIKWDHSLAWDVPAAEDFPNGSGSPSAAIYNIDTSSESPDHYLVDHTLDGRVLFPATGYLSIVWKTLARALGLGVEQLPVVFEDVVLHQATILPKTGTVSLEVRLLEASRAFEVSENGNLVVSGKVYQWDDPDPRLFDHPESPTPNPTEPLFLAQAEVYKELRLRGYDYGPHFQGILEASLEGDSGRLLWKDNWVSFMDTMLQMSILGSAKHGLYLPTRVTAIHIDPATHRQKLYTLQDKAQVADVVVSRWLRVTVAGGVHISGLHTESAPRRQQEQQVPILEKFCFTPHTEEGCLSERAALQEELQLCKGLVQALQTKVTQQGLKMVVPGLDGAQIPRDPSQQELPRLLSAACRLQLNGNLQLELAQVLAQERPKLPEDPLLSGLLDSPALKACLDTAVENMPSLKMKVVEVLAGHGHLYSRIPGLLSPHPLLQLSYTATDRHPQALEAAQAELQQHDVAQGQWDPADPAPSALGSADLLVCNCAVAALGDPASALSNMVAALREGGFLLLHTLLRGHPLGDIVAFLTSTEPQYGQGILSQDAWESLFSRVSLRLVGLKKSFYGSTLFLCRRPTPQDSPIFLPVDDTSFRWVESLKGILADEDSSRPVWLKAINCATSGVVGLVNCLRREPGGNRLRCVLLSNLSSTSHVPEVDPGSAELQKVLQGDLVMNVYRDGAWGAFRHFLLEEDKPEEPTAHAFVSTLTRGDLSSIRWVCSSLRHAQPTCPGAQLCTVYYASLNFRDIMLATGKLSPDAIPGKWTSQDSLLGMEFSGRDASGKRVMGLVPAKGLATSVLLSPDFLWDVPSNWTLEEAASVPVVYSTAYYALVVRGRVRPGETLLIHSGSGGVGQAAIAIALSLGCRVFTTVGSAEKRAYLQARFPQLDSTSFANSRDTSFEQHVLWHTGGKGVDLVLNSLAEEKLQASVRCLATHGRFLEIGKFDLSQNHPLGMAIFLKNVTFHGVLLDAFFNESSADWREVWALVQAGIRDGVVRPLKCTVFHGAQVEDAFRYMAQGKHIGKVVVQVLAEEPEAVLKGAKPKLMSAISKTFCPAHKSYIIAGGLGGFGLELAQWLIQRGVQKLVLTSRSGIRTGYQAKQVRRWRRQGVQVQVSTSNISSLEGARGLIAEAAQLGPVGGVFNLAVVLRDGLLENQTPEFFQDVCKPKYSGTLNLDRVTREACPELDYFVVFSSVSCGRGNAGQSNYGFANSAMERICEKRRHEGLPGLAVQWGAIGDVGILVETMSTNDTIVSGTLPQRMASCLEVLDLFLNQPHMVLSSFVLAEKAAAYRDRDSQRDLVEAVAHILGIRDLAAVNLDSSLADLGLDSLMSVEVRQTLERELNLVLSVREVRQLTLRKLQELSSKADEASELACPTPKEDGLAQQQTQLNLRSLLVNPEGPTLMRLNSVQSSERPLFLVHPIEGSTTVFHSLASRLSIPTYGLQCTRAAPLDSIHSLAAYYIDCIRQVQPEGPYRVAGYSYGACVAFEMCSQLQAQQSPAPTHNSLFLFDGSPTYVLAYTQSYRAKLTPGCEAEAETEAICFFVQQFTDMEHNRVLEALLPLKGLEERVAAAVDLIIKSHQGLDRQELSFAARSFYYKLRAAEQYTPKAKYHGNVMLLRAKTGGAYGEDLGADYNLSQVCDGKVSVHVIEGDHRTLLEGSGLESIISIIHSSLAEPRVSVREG

[4] = molecular target: Heat shock protein HSP 90-alpha (Homo sapiens, UniProt P07900); type: functional, organism-based
[5] = Luminescence Cell-Based Dose Retest to Confirm Inhibitors of Cancer Stem Cells. [Related pubchem assays (depositor defined):AID2717, AID2721]; type: functional; conditions: Homo sapiens
INS1 = assay: INS-1E survival protection against cytokine death – cell-based, luminescence, retest, dose response (AID 449756); type: functional; conditions: Rattus norvegicus;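 also: cell death triggered by IL-1 beta plus TNF-alpha plus IFN-gamma mixture; protective hits raise ATP signal compared with cytokine alone wells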
[6] = blockers of HIV-1 ZM109 envelope-driven cell-cell fusion – HeLa effector, CEM target cells, luciferase, cherry-pick, dose response (AID 652058); type: functional, cell-based;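 also: luciferase signal from HIV-1 Env mediated cell-cell fusion of effector and target cells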
[7] = blockers of HIV-1 envelope-mediated cell-cell fusion – cherry-pick, dose response (AID 652057); type: functional, cell-based
[8] = off-target signal loss in HeLa-CEM21 co-culture – HeLa F-luc CTL cells, cherry-picked, counter-screen for HIV-1 Env fusion inhibitor project, dose response (AID 652040); type: functional, cell-based;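 also: potency for signal decrease marking cytotoxic or nonspecific inhibition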
[9] = HIV-1 AD8 envelope cell-cell fusion blockers – cherry-pick, dose response (AID 652062); type: functional, cell-based;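 also: luciferase signal from cell-cell fusion driven by HIV-1 clade B AD8 Env; potency is for inhibitors of fusion seen as a drop in luminescence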
[10] = Trypanosoma cruzi growth suppression in host cells – NIH3T3 host cells, beta-gal luminescence, confirmation (AID 2044); type: functional, cell-based;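 also: intracellular parasites grown in NIH/3T3 mouse fibroblasts as host cells; luminescent beta-galactosidase reporter signal from transgenic T. cruzi replicating inside host cells; inhibitors lower the luminescence signal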
[11] = NIH3T3 cell viability loss – ATP luminescence, mouse fibroblasts, counter-screen, dose response (AID 2010); type: functional, cell-based;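 also: cells exposed to compound for about 90 hours before reading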
[12] = fluconazole-exposed Candida albicans growth modulators – fluorescence, retest, confirmation (AID 2467); type: functional, cell-based
[13] = NIH-3T3 fibroblast cytotoxicity, dose response, cytotoxicity control, cell-based, fluorescence, Alamar Blue, secondary assay (AID 2327); type: functional;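 also: NIH-3T3 mouse fibroblasts cultured with fluconazole at 8 µg/mL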

With `NC(S)=Nc1nc2ccccc2nc1O` the IC50 [1] was > 20 µM (inactive).

In the case of `CC(=O)Nc1cc2c(cc1Br)OCCO2`, the EC50 (cells [2]) is reported as > 350 µM (not active) and the EC50 (cells [3]) is reported as > 350 µM (not active).

For `CCOc1ccc(C(=O)NC(=S)Nc2cccc(NC(=O)c3ccco3)c2)cc1[N+](=O)[O-]`, the EC50 (cells [2]) was > 350 µM (not active) and the EC50 (cells [3]) was > 350 µM (not active).

With `O=C(COc1ccccc1)Nc1nc(-c2ccc(S(=O)(=O)N3CCOCC3)cc2)cs1` the IC50 (Fatty acid synthase) was 0.489 µM (active).

With `O=S(=O)(NC1CC2CCC1C2)c1ccc(Cl)cc1` (configuration not stated) the AC50 [4] was 0.538 µM (active).

For `COc1ccc(CCNc2ccc(C(CC(N)=O)NC(=O)c3ccc(Br)cc3)cc2[N+](=O)[O-])cc1` (configuration not stated), the AC50 [5] was 5.51 µM (active) and the AC50 (INS1) was 12.9 µM (active).

In the case of `Cc1ccc2nc(-c3cccc(NS(C)(=O)=O)c3)cc(-c3ccccc3)c2c1`, the AC50 [4] is reported as 4.75 µM (active) and the AC50 [5] is reported as 4.13 µM (active).

With `CC(C)CCSc1nc(N)c(C#N)cc1C#N` the AC50 [6] was 32.3 µM (active), the AC50 [7] was 26.2 µM (active) and the AC50 [8] was 23.4 µM (active). The AC50 [9] was 25.6 µM (active), the EC50 [10] was 0.542 µM (active) and the EC50 [11] was > 60 µM (not active).

In the case of `O=C(O)/C=C/c1cnn(-c2ccccc2)c1`, the EC50 (cells [2]) is reported as > 350 µM (not active) and the EC50 (cells [3]) is reported as 2.39 µM (active).

With `COC(=O)c1ccccc1S(=O)(=O)N1CCC(C(=O)N2CCC2)CC1` the IC50 [1] was > 20 µM (inactive).

With `CN(C)C(=O)CSc1nc2ccccc2n1Cc1ccccc1` the EC50 (cells [2]) was > 350 µM (not active) and the EC50 (cells [3]) was > 350 µM (not active).

With `O=C(Nc1nc(-c2ccccn2)cs1)c1cc2ccccc2o1` the AC50 [4] was 4.49 µM (active), the EC50 [10] was 1.46 µM (active) and the EC50 [12] was 1.49 µM (active). For the same compound, the EC50 [13] was 20.5 µM (active) and the EC50 [11] was 9.05 µM (active).
